Like-named read-outs stand apart in the source and are kept apart here.

From patent US20250186408A1, “TREATMENT OF PHARMACORESISTANT EPILEPSY” (Katholieke Universiteit Leuven, priority 2021, published 2025) come the findings set out here.

Series [1] concerns the target T1, HTR2A (Homo sapiens, UniProt P28223). As to the kind of experiment: Calcium Flux HTR2A Agonist. Particulars: for Emax: read-out: Max response. In general terms: Calcium flux is commonly read through the fluorescence of an indicator in the cells.
Method: (§3) In vitro pharmacological profiling of compounds was done against 78 functional assays for 47 common off-targets (30) by Eurofins DiscoverX Corporation (Fremont, CA, USA) using their SAFETYscan E/IC50 ELECT service (Cat Ref 87-1003DR, Safety47 Panel Dose Response). […] Compounds were tested in a range of 10 concentrations, following a 3-fold serial dilution, starting from 10 μM. The assays were performed utilizing the PathHunter enzyme fragment complementation (EFC) technology, FLIPR®-based cellular screening assays, and KINOMEscan kinase binding assays.
(§4) Prior to testing, cells (10,000 cells/well) were expanded from freezer stocks and seeded into a total volume of 50 μL into black walled, clear-bottom, Poly-D-lysine coated 384-well microplates and incubated at 37° C. […] Assays were performed in 1× dye loading buffer consisting of 1× Dye (DiscoverX, Calcium No Wash^PLUS kit, Catalog No. 90-0091), 1× Additive A and 2.5 mM Probenecid in HBSS/20 mM HEPES. Probenecid was prepared fresh. Prior to testing, media was aspirated from cells and replaced with 25 μL dye loading buffer. Cells were incubated for 45 min at 37° C. and then 20 min at RT. For agonist determination, 25 μL of 2× compound in HBSS/20 mM HEPES was added using a FLIPR Tetra (MDS). For antagonist determination, cells were pre-incubated with sample followed by agonist challenge at the EC80 concentration. 25 μL of 2× sample was added and cells were incubated for 30 min at RT in the dark to equilibrate plate temperature. After incubation, antagonist determination was initiated by addition of 25 μL of 1× compound with 3×EC80 agonist using FLIPR. For both agonist and antagonist formats, activity was measure on a FLIPR Tetra (MDS). Calcium mobilization was monitored for 2 min with a 5 sec baseline read.
(§5) FLIPR read—Area under the curve, was calculated for the entire 2 min read. Compound activity was analysed using CBIS data analysis suite (ChemInnovation, CA).
A further series concerns the target CNR2 (Homo sapiens, UniProt P34972). The series is described as follows: cAMP CNR2 Agonist. The note with it: for Emax: read-out: Max response.
The next series addresses AVPR1A (Homo sapiens, UniProt P37288). As to the kind of experiment: Calcium Flux AVPR1A Agonist. The series is classed as cell-based. The note with it: for EC50: read-out: RC50, result type EC50; for Emax: read-out: Max response. Here is the method:
(§1) (≤0.2% DMSO concentration). Assays were performed in 1× dye loading buffer consisting of 1× Dye (DiscoverX, Calcium No Wash^PLUS kit, Catalog No. 90-0091), 1× Additive A and 2.5 mM Probenecid in HBSS/20 mM HEPES. Probenecid was prepared fresh. Prior to testing, media was aspirated from cells and replaced with 25 μL dye loading buffer. Cells were incubated for 45 min at 37° C. and then 20 min at RT. For agonist determination, 25 μL of 2× compound in HBSS/20 mM HEPES was added using a FLIPR Tetra (MDS). […] 25 μL of 2× sample was added and cells were incubated for 30 min at RT in the dark to equilibrate plate temperature. After incubation, antagonist determination was initiated by addition of 25 μL of 1× compound with 3×EC80 agonist using FLIPR. For both agonist and antagonist formats, activity was measure on a FLIPR Tetra (MDS). Calcium mobilization was monitored for 2 min with a 5 sec baseline read.
(§2) FLIPR read—Area under the curve, was calculated for the entire 2 min read.

A further series has as its target ADORA2A (Homo sapiens, UniProt P29274). The series is described as follows: Calcium Flux ADORA2A Agonist. The series is classed as cell-based. Particulars: for EC50: read-out: RC50, result type EC50; for Emax: read-out: Max response. The protocol:
as §1, §2

A short description of a further series: Plasma protein binding. It is filed as in vitro ADME. Particulars: pH 7.4, human plasma. An excerpt:
In vitro ADME profiling of compounds was done by Eurofins Panlabs Inc (St Charles, MO, USA) using their ADME-Tox service (Cat Ref P375, Tier 1 ADME Panel). […] (28). The atom-based log P calculation method, called OsirisP, uses as an increment system and adds contributions of every atom based on its atom type. The prediction engine distinguishes a total of 368 atom types and was optimized using a training set of more than 5000 molecules with experimentally determined log P values. The free prediction engine has proven to outperform many alternative calculation methods (29).
Human plasma, used as the protein containing matrix, was spiked with the test compound at 10 μM (final solvent concentration of 1% DMSO). The assay was performed in a 96-well format in a dialysis block (Teflon) with the dialysate compartment containing PBS (pH 7.4) and the sample side containing an equal volume of the spiked protein matrix. The plate was incubated at 37° C. for 4 h. After incubation, samples were taken from both compartments, diluted with the phosphate buffer, followed by the addition of acetonitrile and centrifugation. The supernatants were then used for HPLC-MS/MS analysis. Acebutolol, quinidine and warfarin were tested in each assay. The percentage bound to proteins and the recovery were calculated as follows: […]

Series [2] has as its target T1, HTR2A. The series is described as follows: Calcium Flux HTR2A Antagonist. Particulars: for Emax: read-out: Max response.
Method: as §3, §4, §5
A further series has as its target T2, AChE (Homo sapiens, UniProt P22303).
T2 construct: purchased R&D Systems
As to the kind of experiment: Enzymatic AChE Inhibitor. The note with it: for IC50: read-out: RC50, result type IC50; for Emax: read-out: Max response. It is filed as biochemical. The protocol:
Enzyme preparations were sourced from various vendors-AChE (R&D Systems), COX1 and COX2 (BPS Bioscience), MAOA (Sigma), PDE3A and PDE4D2 (Signal Chem). AChE: enzyme and test compound were pre-incubated for 15 min at RT before substrate addition. Acetylthiocholine and DTNB were added and incubated at RT for 30 min. Signal was detected by measuring absorbance at 405 nm. COX1 and COX2: enzyme stocks were diluted in assay buffer (40 mM Tris-HCl, 1×PBS, 0.5 mM Phenol, 0.01% Tween 20 and 10 nM Hematin) and allowed to equilibrate with compounds at RT for 30 min (binding incubation). Arachidonic acid (1.7 μM) and Ampliflu Red (2.5 μM) were prepared and dispended into a reaction plate. Plates were read immediately on a fluorimeter with the emission detection at 590 nm and excitation wavelength 544 nm. MAOA: enzyme and test compound were pre-incubated for 15 min at 37° C. before substrate addition. The reaction was initiated by addition of kynuramine and incubated at 37° C. for 30 min. The reaction was terminated by addition of NaOH. The amount of 4-hydroquinoline formed was determined through spectrofluorometric readout with the emission detection at 380 nm and excitation wavelength 310 nm. PDE3A and PDE4D2: enzyme and test compound were pre-incubated for 15 min at RT before substrate addition. cAMP substrate (at a concentration equal to EC80) was added and incubated at RT for 30 min. Enzyme reaction was terminated by addition of 9 mM IBMX. Signal was detected using the HitHunter® cAMP detection kit. Microplates were transferred to a PerkinElmer Envision™ instrument and read out as described for each assay. […] For enzyme activity assays, percentage inhibition was calculated using the following equation: […]

The target in series [3] is T3, CNR1 (Homo sapiens, UniProt P21554). As to the kind of experiment: cAMP CNR1 Antagonist. The note with it: for Emax: read-out: Max response.
T3 sequence (P21554 whole entry): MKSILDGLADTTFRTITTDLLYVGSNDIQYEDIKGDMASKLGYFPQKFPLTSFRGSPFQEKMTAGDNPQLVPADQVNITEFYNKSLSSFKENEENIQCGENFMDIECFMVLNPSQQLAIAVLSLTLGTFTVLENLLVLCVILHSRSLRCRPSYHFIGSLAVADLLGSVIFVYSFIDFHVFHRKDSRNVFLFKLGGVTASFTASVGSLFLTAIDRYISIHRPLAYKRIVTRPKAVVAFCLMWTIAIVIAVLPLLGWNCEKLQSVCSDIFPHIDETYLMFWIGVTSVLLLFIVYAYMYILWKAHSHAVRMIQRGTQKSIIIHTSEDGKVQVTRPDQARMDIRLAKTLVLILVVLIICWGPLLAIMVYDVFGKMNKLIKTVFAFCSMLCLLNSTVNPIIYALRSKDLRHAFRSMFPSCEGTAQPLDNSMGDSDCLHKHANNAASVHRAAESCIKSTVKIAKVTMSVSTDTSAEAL
Method: In vitro pharmacological profiling of compounds was done against 78 functional assays for 47 common off-targets (30) by Eurofins DiscoverX Corporation (Fremont, CA, USA) using their SAFETYscan E/IC50 ELECT service (Cat Ref 87-1003DR, Safety47 Panel Dose Response). […] Compounds were tested in a range of 10 concentrations, following a 3-fold serial dilution, starting from 10 μM.
cAMP Hunter cell lines were expanded from freezer stocks. Prior to testing, cells were seeded in a total volume of 20 μL into white walled 384-well microplates and incubated at 37° C. cAMP modulation was determined using the DiscoverX HitHunter cAMP XS+ assay. For Gs agonist determination, cells were incubated with sample to induce response. For Gi agonist determination, cells were incubated with sample in the presence of EC80 forskolin to induce response. For both conditions, media was aspirated from cells and replaced with 15 μL 2:1 HBSS/10 mM HEPES:cAMP XS+ Ab reagent. Intermediate dilution of sample stocks was performed to generate 4× sample in assay buffer (containing 4×EC80 forskolin in the case of antagonist determination). 5 μL of 4× sample was added to cells and incubated at 37° C. or room temperature (RT) for 30 or 60 min. Final assay vehicle concentration was 1%. For antagonist determination, cells were pre-incubated with sample followed by agonist challenge at the EC80 concentration. Media was aspirated from cells and replaced with 10 μL 1:1 HBSS/HEPES:cAMP XS+ Ab reagent. 5 μL of 4× compound was added to the cells and incubated at 37° C. or RT for 30 min. 5 μL of 4×EC80 agonist was added to the cells and incubated at 37° C. or RT for 30 or 60 min. For Gi coupled GPCRs, EC80 forskolin was included. […] Microplates were read following signal generation with a PerkinElmer Envision™ instrument for chemiluminescent signal detection. Compound activity was analyzed using CBIS data analysis suite (ChemInnovation, CA). For Gs agonist mode assays, percentage activity was calculated using the following equation:
The target of the next series is HRH2 (Homo sapiens, UniProt P25021). As to the kind of experiment: cAMP HRH2 Agonist. It is filed as cell-based. The note with it: for Emax: read-out: Max response. The protocol:
cAMP Hunter cell lines were expanded from freezer stocks. […] For Gi agonist determination, cells were incubated with sample in the presence of EC80 forskolin to induce response. For both conditions, media was aspirated from cells and replaced with 15 μL 2:1 HBSS/10 mM HEPES:cAMP XS+ Ab reagent. […] 5 μL of 4× sample was added to cells and incubated at 37° C. or room temperature (RT) for 30 or 60 min. Final assay vehicle concentration was 1%. […] Media was aspirated from cells and replaced with 10 μL 1:1 HBSS/HEPES:cAMP XS+ Ab reagent. […] For Gi coupled GPCRs, EC80 forskolin was included. […] Compound activity was analyzed using CBIS data analysis suite (ChemInnovation, CA).

Series [4] concerns the target T3, CNR1. As to the kind of experiment: cAMP CNR1 Agonist. Particulars: for Emax: read-out: Max response.
Method: as §3
(§6) cAMP Hunter cell lines were expanded from freezer stocks. Prior to testing, cells were seeded in a total volume of 20 μL into white walled 384-well microplates and incubated at 37° C. cAMP modulation was determined using the DiscoverX HitHunter cAMP XS+ assay. For Gs agonist determination, cells were incubated with sample to induce response. For Gi agonist determination, cells were incubated with sample in the presence of EC80 forskolin to induce response. For both conditions, media was aspirated from cells and replaced with 15 μL 2:1 HBSS/10 mM HEPES:cAMP XS+ Ab reagent. Intermediate dilution of sample stocks was performed to generate 4× sample in assay buffer (containing 4×EC80 forskolin in the case of antagonist determination). 5 μL of 4× sample was added to cells and incubated at 37° C. or room temperature (RT) for 30 or 60 min. Final assay vehicle concentration was 1%. For antagonist determination, cells were pre-incubated with sample followed by agonist challenge at the EC80 concentration. Media was aspirated from cells and replaced with 10 μL 1:1 HBSS/HEPES:cAMP XS+ Ab reagent. 5 μL of 4× compound was added to the cells and incubated at 37° C. or RT for 30 min. 5 μL of 4×EC80 agonist was added to the cells and incubated at 37° C. or RT for 30 or 60 min. For Gi coupled GPCRs, EC80 forskolin was included. […] Microplates were read following signal generation with a PerkinElmer Envision™ instrument for chemiluminescent signal detection. Compound activity was analyzed using CBIS data analysis suite (ChemInnovation, CA).

Chain of ADORA2A (P29274 whole entry): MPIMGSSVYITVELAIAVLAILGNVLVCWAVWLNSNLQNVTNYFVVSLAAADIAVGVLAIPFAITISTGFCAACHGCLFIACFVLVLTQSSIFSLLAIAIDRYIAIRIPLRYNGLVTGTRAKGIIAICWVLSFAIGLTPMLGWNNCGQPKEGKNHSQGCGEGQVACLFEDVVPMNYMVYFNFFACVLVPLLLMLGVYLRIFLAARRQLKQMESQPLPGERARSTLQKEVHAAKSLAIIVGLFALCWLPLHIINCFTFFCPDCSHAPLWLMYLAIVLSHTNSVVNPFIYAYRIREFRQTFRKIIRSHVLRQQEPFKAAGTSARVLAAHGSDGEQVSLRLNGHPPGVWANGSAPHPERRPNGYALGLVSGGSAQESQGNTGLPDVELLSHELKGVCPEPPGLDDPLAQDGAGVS
T1 sequence (P28223 whole entry): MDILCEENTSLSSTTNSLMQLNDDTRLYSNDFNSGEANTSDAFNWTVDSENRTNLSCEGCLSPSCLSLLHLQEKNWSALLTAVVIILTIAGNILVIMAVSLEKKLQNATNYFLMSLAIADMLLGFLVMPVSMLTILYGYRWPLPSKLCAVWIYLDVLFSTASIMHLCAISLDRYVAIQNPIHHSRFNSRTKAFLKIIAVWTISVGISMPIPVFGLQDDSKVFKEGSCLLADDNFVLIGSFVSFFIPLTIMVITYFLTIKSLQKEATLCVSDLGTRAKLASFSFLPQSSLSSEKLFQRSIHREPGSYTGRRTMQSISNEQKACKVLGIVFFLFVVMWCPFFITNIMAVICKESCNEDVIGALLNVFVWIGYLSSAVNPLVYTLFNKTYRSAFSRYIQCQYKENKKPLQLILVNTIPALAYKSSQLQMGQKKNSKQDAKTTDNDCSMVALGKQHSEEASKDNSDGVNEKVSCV
Chain of HRH2 (P25021 whole entry): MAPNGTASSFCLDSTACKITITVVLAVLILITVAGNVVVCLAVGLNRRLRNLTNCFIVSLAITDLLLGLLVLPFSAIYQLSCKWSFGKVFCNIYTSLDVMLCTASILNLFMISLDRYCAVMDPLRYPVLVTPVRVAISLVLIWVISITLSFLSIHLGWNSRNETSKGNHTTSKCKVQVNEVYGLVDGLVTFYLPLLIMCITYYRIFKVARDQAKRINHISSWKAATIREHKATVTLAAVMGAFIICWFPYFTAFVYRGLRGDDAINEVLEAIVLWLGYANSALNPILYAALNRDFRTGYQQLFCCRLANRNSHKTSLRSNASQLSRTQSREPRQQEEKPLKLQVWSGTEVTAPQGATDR
Chain of CNR2 (P34972 whole entry): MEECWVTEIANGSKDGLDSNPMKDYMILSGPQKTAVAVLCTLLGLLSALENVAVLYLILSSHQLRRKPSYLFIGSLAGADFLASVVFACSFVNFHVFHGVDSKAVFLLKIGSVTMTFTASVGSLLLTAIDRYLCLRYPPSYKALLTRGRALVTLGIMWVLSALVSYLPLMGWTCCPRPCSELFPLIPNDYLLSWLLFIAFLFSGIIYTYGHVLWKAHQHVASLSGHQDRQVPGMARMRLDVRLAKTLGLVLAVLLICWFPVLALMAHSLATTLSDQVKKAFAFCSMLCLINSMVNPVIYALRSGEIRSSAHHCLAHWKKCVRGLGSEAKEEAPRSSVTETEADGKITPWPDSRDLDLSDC
T2 sequence (P22303 32-614): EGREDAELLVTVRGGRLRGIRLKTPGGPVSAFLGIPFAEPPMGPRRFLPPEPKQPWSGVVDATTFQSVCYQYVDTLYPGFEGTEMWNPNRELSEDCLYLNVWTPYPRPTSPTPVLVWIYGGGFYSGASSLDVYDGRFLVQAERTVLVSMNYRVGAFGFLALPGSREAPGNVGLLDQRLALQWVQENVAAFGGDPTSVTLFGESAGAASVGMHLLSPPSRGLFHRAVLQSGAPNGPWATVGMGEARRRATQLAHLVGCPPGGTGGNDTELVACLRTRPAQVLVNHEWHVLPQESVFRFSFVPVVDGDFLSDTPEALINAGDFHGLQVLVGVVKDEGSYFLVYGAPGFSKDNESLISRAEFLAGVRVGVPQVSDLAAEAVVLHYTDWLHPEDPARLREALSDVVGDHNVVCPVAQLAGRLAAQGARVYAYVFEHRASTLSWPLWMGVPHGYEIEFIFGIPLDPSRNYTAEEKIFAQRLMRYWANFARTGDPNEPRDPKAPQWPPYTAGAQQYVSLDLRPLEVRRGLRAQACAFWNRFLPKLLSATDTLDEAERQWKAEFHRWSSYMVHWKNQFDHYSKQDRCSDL
Chain of AVPR1A (P37288 whole entry): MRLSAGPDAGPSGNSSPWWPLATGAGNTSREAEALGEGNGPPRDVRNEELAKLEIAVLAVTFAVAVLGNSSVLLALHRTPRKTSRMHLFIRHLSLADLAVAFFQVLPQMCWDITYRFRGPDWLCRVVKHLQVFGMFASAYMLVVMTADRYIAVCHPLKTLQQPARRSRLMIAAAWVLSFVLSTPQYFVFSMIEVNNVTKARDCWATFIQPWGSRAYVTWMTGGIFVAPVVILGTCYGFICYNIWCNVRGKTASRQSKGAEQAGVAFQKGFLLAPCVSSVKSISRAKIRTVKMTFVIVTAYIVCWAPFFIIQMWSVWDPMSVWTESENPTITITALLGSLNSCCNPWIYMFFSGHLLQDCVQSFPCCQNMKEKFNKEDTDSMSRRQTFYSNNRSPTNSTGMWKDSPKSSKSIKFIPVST
Method for CNR2: as §3, §6

As to `CC(C)(C)c1ccc(C#CC(O)c2ccccc2)cc1` (racemic) [Compound 3.3, rac-3-(4-(tert-butyl)phenyl)-1-phenylprop-2-yn-1-ol], the EC50 at HTR2A [1], on CNR2, on AVPR1A (Calcium Flux AVPR1A Agonist), at ADORA2A (Calcium Flux ADORA2A Agonist), at HRH2 and at CNR1 [4] was more than 10 µM each time. Moreover, the Emax on HTR2A [1] was 0%; on CNR2, 38.1%; at AVPR1A it was 8.7%; on ADORA2A, 1.8%; on HTR2A [2] it was 0%; on AChE, 3.8%. Also, the figures for the Emax on CNR1 [3], on HRH2 and on CNR1 [4] were 17.5%, 2.2% and 9.8%, respectively. In addition, the fraction unbound (in general, free concentration divided by total concentration) at 4 h, 10 μM in “Plasma protein binding” is 0.002. The concentration for half-maximal inhibition (IC50) on HTR2A [2], at AChE (Enzymatic AChE Inhibitor) and at CNR1 [3] was more than 10 µM each time.

For `Clc1cccc(C#Cc2n[nH]c3ncccc23)c1` [Compound 10.1, 3-((3-chlorophenyl)ethynyl)-1H-pyrazolo[3,4-b]pyridine], the EC50 (usually the midpoint of the concentration-response curve) on HTR2A [1] is more than 10 µM; at CNR2, more than 10 µM; on AVPR1A (Calcium Flux AVPR1A Agonist), more than 10 µM; on ADORA2A (Calcium Flux ADORA2A Agonist) it was more than 10 µM; on HRH2 (cAMP HRH2 Agonist, read-out: RC50, result type EC50) it was more than 10 µM; at CNR1 [4], more than 10 µM. Besides, the Emax at HTR2A [1] was 0%; at CNR2, 49.3%; at AVPR1A (Calcium Flux AVPR1A Agonist), 7.9%; on ADORA2A (Calcium Flux ADORA2A Agonist) it was 3%; on HTR2A [2], 0%; at AChE (Enzymatic AChE Inhibitor), 1.3%. Further, the Emax on CNR1 [3] was determined as 0%; at HRH2 (cAMP HRH2 Agonist), 0.4%; at CNR1 [4], 20.1%. In addition, the fraction unbound at 4 h, 10 μM in the series “Plasma protein binding” is 0.0035. In addition, the half-maximal inhibitory concentration (IC50) at HTR2A [2], at AChE (Enzymatic AChE Inhibitor) and at CNR1 [3] was more than 10 µM in each case.
